Measurements: the supplement of paper PMC10627819

Columns and labels:
S. pneumoniae D39V [1] = test: fitness (endpoint OD595 vs no drug) (fraction); higher = more growth
How it was run: (§1)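 At 37 °C, bacteria in TSB, LB Lennox or CY were grown in 384-well plates from a starting OD595 of 0.01. OD595 was measured every 30 min for 14 h, with the first reading used as background. Fitness is the optical density at the switch to stationary phase as a fraction of the robust mean of no-drug control wells, capped at 1.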

B. subtilis 168 [2] = test: as above
How it was run: as §1

S. aureus DSM 20231 [3] = test: as above
How it was run: as §1

S. aureus Newman [4] = test: as above
How it was run: as §1

S. pneumoniae D39V [5] = test: Bliss interaction score (quartile over a dose matrix) (fitness difference); higher = more antagonism (negative = synergy)
How it was run: (§2)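 Fitness is OD595 at stationary-phase entry relative to the plate's robust no-drug mean, capped at 1. Single-drug fitness was inferred from combinations. The Bliss score is observed minus product-expected fitness, summarised by quartiles over technical, biological and donor/recipient replicates.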

B. subtilis 168 [6] = test: as above
How it was run: as §2

S. aureus DSM 20231 [7] = test: as above
How it was run: as §2

S. aureus Newman [8] = test: as above
How it was run: as §2
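Throughout, for Bliss interaction score (quartile over a dose matrix): first quartile when negative (synergy) and third quartile when positive (antagonism).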

CCCCCCCCCC(=O)N[C@@H](Cc1c[nH]c2ccccc12)C(=O)N[C@H](CC(N)=O)C(=O)N[C@@H](CC(=O)O)C(=O)N[C@@H]1C(=O)NCC(=O)N[C@@H](CCCN)C(=O)N[C@@H](CC(=O)O)C(=O)N[C@H](C)C(=O)N[C@@H](CC(=O)O)C(=O)NCC(=O)N[C@H](CO)C(=O)N[C@@H]([C@H](C)CC(=O)O)C(=O)N[C@@H](CC(=O)c2ccccc2N)C(=O)O[C@@H]1C [Daptomycin] + COc1c(N2C[C@@H]3CCCN[C@@H]3C2)c(F)cc2c(=O)c(C(=O)O)cn(C3CC3)c12 [Moxifloxacin]
Conditions	fitness
B. subtilis 168 [2], first compound 0.125 µg/mL, partner 0.0312 µg/mL	0.0461
B. subtilis 168 [2], first compound 0.125 µg/mL, partner 0.0625 µg/mL	0.0437
B. subtilis 168 [2], first compound 0.125 µg/mL, partner 0.125 µg/mL	0.0394
B. subtilis 168 [2], first compound 0.125 µg/mL, partner 2 µg/mL	0.0342
B. subtilis 168 [2], first compound 0.125 µg/mL, partner 4 µg/mL	0.0583
B. subtilis 168 [2], first compound 0.125 µg/mL, partner 8 µg/mL	0.0431
B. subtilis 168 [2], first compound 0.25 µg/mL, partner 0.0312 µg/mL	0.0537
B. subtilis 168 [2], first compound 0.25 µg/mL, partner 0.0625 µg/mL	0.0246
B. subtilis 168 [2], first compound 0.25 µg/mL, partner 0.125 µg/mL	0.019
B. subtilis 168 [2], first compound 0.25 µg/mL, partner 2 µg/mL	0.0893
B. subtilis 168 [2], first compound 0.25 µg/mL, partner 4 µg/mL	0.0796
B. subtilis 168 [2], first compound 0.25 µg/mL, partner 8 µg/mL	0.124
B. subtilis 168 [2], first compound 0.5 µg/mL, partner 0.0312 µg/mL	0.0547
B. subtilis 168 [2], first compound 0.5 µg/mL, partner 0.0625 µg/mL	0.026
B. subtilis 168 [2], first compound 0.5 µg/mL, partner 0.125 µg/mL	0.0309
B. subtilis 168 [2], first compound 0.5 µg/mL, partner 2 µg/mL	0.0708
B. subtilis 168 [2], first compound 0.5 µg/mL, partner 4 µg/mL	0.044
B. subtilis 168 [2], first compound 0.5 µg/mL, partner 8 µg/mL	0.0672
S. aureus DSM 20231 [3], first compound 0.5 µg/mL, partner 0.0075 µg/mL	0.776
S. aureus DSM 20231 [3], first compound 0.5 µg/mL, partner 0.015 µg/mL	0.754
S. aureus DSM 20231 [3], first compound 0.5 µg/mL, partner 0.03 µg/mL	0.673
S. aureus DSM 20231 [3], first compound 1 µg/mL, partner 0.0075 µg/mL	0.837
S. aureus DSM 20231 [3], first compound 1 µg/mL, partner 0.015 µg/mL	0.786
S. aureus DSM 20231 [3], first compound 1 µg/mL, partner 0.03 µg/mL	0.696
S. aureus DSM 20231 [3], first compound 2 µg/mL, partner 0.0075 µg/mL	0.761
S. aureus DSM 20231 [3], first compound 2 µg/mL, partner 0.015 µg/mL	0.749
S. aureus DSM 20231 [3], first compound 2 µg/mL, partner 0.03 µg/mL	0.655
S. aureus Newman [4], first compound 0.125 µg/mL, partner 0.0075 µg/mL	0.751
S. aureus Newman [4], first compound 0.25 µg/mL, partner 0.0075 µg/mL	0.744
S. aureus Newman [4], first compound 0.25 µg/mL, partner 0.015 µg/mL	0.636
S. aureus Newman [4], first compound 0.5 µg/mL, partner 0.0075 µg/mL	0.774
S. pneumoniae D39V [1], first compound 1 µg/mL, partner 0.005 µg/mL	0.947
S. pneumoniae D39V [1], first compound 1 µg/mL, partner 0.01 µg/mL	0.965
S. pneumoniae D39V [1], first compound 1 µg/mL, partner 0.02 µg/mL	0.846
S. pneumoniae D39V [1], first compound 1 µg/mL, partner 0.0312 µg/mL	0.0587
S. pneumoniae D39V [1], first compound 1 µg/mL, partner 0.0625 µg/mL	0.0444
S. pneumoniae D39V [1], first compound 1 µg/mL, partner 0.125 µg/mL	0.0384
S. pneumoniae D39V [1], first compound 2 µg/mL, partner 0.005 µg/mL	0.946
S. pneumoniae D39V [1], first compound 2 µg/mL, partner 0.01 µg/mL	0.951
S. pneumoniae D39V [1], first compound 2 µg/mL, partner 0.02 µg/mL	0.826
S. pneumoniae D39V [1], first compound 2 µg/mL, partner 0.0312 µg/mL	0.0617
S. pneumoniae D39V [1], first compound 2 µg/mL, partner 0.0625 µg/mL	0.0424
S. pneumoniae D39V [1], first compound 2 µg/mL, partner 0.125 µg/mL	0.0433
S. pneumoniae D39V [1], first compound 4 µg/mL, partner 0.005 µg/mL	0.95
S. pneumoniae D39V [1], first compound 4 µg/mL, partner 0.01 µg/mL	0.988
S. pneumoniae D39V [1], first compound 4 µg/mL, partner 0.02 µg/mL	0.885
S. pneumoniae D39V [1], first compound 4 µg/mL, partner 0.0312 µg/mL	0.0587
S. pneumoniae D39V [1], first compound 4 µg/mL, partner 0.0625 µg/mL	0.0393
S. pneumoniae D39V [1], first compound 4 µg/mL, partner 0.125 µg/mL	0.0263

fitness, one replicate
Conditions	first compound 0.5 µg/mL	first compound 1 µg/mL	first compound 2 µg/mL
B. subtilis 168 [2], partner 0.0312 µg/mL	–	0.0152	–
B. subtilis 168 [2], partner 0.0625 µg/mL	–	0.0268	–
B. subtilis 168 [2], partner 0.125 µg/mL	–	0.0146	–
S. aureus DSM 20231 [3], partner 0.06 µg/mL	0.667	0.654	0.637
S. aureus DSM 20231 [3], partner 0.12 µg/mL	0.49	0.46	0.46

Conditions	Bliss interaction score
B. subtilis 168 [6]	-0.0294
S. aureus DSM 20231 [7]	-0.0667
S. aureus Newman [8]	0.0375
S. pneumoniae D39V [5]	-0.0679
